Source: patent US20140221499A1, “NOVEL RODENT CONTROL AGENTS AND USES THEREOF” (priority 2011, published 2014)

Legend:
Type in all cases: cell-based
olfactory TAARs = assay: TAAR reporter gene assay, panel of mouse and rat TAARs in HEK293 cells; settings: for TAAR activation: mouse and rat TAARs
From the text: (§1) Here, we set out to identify agonists for additional mouse and rat TAARs. We examined odor response profiles using a previously established reporter gene assay based on cAMP-dependent odor transduction in olfactory sensory neurons (40, 42). Briefly, TAAR plasmids were transfected into HEK293 cells along with a cAMP-dependent reporter gene encoding secreted alkaline phosphatase (CRE-SEAP). TAARs were expressed both in unmodified form and as fusion proteins with an N-terminal sequence of bovine rhodopsin (‘Rho tag’) that promotes cell surface expression of some chemosensory receptors (35). Transfected cells were incubated with test chemicals, and phosphatase activity was quantified with a fluorescent substrate as a reporter for TAAR activation. In initial experiments, we tested 38 different odorant mixtures containing 244 structurally diverse test chemicals (2-5 μM) for the ability to activate each mTAAR. Subsequently, we tested 73 amines that included known mTAAR agonists and related chemicals for the ability to activate each rTAAR.
TAAR functional assays. Full Taar coding regions were cloned into pcDNA3.1-(Invitrogen) with or without a 5′ DNA extension of 69 bp encoding the first 20 amino acids of bovine rhodopsin followed by a cloning linker ([…]). Point mutations were introduced in mTAAR7e and mTAAR7f by overlap extension PCR. Functional assays were performed as described (40, 42). Fluorescence was measured on an EnVision plate reader (Perkin Elmer) and SEAP activity graphed as relative fluorescence of a phosphatase substrate.

mTAAR7e = molecular target: T1, mTAAR7e (Mus musculus, UniProt Q5QD09); assay: TAAR reporter gene assay, mTAAR7e
T1 construct: Full Taar coding regions were cloned into pcDNA3.1-(Invitrogen); Rho tag (first 20 aa of bovine rhodopsin + linker); expressed in transfected cells; host or cells: HEK293
T1 sequence (Q5QD09 1-358): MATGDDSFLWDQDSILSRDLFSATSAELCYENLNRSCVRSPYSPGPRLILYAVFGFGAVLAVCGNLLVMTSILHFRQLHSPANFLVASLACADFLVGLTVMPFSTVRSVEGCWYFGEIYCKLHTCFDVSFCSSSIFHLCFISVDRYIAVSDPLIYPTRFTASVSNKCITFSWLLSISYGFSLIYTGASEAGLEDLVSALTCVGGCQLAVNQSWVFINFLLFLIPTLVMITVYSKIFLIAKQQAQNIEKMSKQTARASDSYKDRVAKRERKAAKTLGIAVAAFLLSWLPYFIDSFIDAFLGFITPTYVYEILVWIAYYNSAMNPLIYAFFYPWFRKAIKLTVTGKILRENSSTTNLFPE
From the text: as §1
(§2) TAAR functional assays. […] Fluorescence was measured on an EnVision plate reader (Perkin Elmer) and SEAP activity graphed as relative fluorescence of a phosphatase substrate.

mTAAR7b = molecular target: T2, mTAAR7b (Mus musculus, UniProt Q5QD11); assay: TAAR reporter gene assay, mTAAR7b; design: Full Taar coding regions were cloned into pcDNA3.1-(Invitrogen); Rho tag (first 20 aa of bovine rhodopsin + linker); expressed in transfected cells; host or cells: HEK293
T2 sequence (Q5QD11 1-358): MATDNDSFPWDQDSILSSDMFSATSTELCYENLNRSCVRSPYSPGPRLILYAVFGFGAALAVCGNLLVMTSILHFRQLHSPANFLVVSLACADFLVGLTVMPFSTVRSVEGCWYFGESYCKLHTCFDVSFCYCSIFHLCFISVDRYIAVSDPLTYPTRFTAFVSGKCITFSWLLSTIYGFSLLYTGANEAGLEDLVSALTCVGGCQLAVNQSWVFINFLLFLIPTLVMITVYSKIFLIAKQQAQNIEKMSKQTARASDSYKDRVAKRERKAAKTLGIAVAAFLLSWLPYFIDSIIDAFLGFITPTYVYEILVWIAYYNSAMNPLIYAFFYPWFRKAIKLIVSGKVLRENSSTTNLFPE
From the text: as §1, §2

rTAAR7d = molecular target: T3, rTAAR7d (Rattus norvegicus, UniProt Q923X5); assay: TAAR reporter gene assay, rTAAR7d; design: Full Taar coding regions were cloned into pcDNA3.1-(Invitrogen); Rho tag (first 20 aa of bovine rhodopsin + linker); expressed in transfected cells; host or cells: HEK293
T3 sequence (Q923X5 1-358): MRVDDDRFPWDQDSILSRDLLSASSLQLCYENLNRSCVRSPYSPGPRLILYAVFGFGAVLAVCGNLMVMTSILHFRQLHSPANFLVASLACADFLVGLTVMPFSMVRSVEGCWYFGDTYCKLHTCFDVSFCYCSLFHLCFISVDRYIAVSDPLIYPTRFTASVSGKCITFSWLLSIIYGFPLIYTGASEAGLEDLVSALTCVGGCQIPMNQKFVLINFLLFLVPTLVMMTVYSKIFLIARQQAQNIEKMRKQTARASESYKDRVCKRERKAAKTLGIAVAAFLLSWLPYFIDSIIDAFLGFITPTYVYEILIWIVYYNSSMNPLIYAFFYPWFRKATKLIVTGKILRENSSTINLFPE
From the text: as §1, §2

rTAAR7h = molecular target: T4, rTAAR7h (Rattus norvegicus, UniProt Q923Y4); assay: TAAR reporter gene assay, rTAAR7h; design: Full Taar coding regions were cloned into pcDNA3.1-(Invitrogen); Rho tag (first 20 aa of bovine rhodopsin + linker); expressed in transfected cells; host or cells: HEK293
T4 sequence (Q923Y4 1-358): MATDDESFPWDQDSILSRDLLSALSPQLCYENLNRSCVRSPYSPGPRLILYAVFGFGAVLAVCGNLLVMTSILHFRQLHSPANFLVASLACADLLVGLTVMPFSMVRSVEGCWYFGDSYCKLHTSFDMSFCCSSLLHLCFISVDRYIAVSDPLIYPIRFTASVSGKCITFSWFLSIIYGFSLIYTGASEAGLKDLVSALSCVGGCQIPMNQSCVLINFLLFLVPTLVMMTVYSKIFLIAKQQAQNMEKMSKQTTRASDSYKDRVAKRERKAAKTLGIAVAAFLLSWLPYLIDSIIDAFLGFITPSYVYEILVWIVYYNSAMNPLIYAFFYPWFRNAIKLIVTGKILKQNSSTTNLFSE
From the text: as §1, §2

Row | Compound | activation of other olfactory TAARs with identified ligands (olfactory TAARs; 10 μM (FIG. 2D)) | mTAAR7e activation (mTAAR7e) | mTAAR7b activation (mTAAR7b) | rTAAR7d activation (rTAAR7d) | rTAAR7h activation (rTAAR7h) | TAAR activation (olfactory TAARs)
1 | NCCc1ccccc1 [2-phenylethylamine] | did not similarly activate |  |  |  |  | 
2 | CN(C)CCc1ccccc1 [ligand 6, N,N-dimethyl-2-phenylethylamine] |  | activated | not | not | activated | activated different TAAR7 paralogs
3 | CN(C)C1CCCCC1 [ligand 10, N,N-dimethylcyclohexylamine] |  | not | activated | activated | not | activated different TAAR7 paralogs
